# In PubChem BioAssay AID1645864 (Buhrlage Lab, Dana-Farber Cancer Institute and Novartis …, 2021):
# The source made the active and inactive calls.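 The calls were made as follows: active = maximal inhibition of USP17 at or above 30% in the confirmation dose-response, a value not among the printed readouts; inactive = the rest.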
# Target: Ubiquitin carboxyl-terminal hydrolase 17-like protein 5 (Homo sapiens) (UniProt A8MUK1)
# Experiment: ubiquitin-specific protease 17 inhibitors, concentration series, biochemical, verification of primary actives (AID 1645864)
# Conditions: purified USP17, ubiquitin-rhodamine cleavage fluorescence, 3 h
# Sequence of Ubiquitin carboxyl-terminal hydrolase 17-like protein 5 (Homo sapiens) (A8MUK1 whole entry, looked up): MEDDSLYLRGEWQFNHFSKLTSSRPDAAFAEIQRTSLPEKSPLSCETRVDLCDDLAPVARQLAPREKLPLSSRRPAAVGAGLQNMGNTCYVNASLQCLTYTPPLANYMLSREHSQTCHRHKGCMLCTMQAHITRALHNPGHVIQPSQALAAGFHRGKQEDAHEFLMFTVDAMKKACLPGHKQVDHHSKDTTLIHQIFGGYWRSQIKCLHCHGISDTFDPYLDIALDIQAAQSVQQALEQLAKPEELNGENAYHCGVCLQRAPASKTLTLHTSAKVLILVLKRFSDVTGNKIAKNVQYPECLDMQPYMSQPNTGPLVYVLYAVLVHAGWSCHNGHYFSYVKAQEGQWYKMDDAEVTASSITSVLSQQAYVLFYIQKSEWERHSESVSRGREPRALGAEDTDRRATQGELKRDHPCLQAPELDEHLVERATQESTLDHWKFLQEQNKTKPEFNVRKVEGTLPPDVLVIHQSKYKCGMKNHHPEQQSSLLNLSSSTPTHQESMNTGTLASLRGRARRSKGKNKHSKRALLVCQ
row,Compound,IC50
1,COc1ccc(Cn2cnc3c([nH]c4ccc(Br)cc43)c2=O)cc1,0.778 µM
2,COc1ccc(-n2ccn3c(CCC(=O)NCc4ccc(F)cc4)nnc3c2=O)cc1,33 µM
3,CS(=O)(=O)c1ccc(NC(=O)C2CN(c3nc4c(F)cccc4s3)C2)cc1,36.2 µM
4,Cc1ccc(S(=O)(=O)N2CCCCC2)cc1NC(=O)Cc1cccc(F)c1,> 50 µM (inactive)
5,c1ccc2c(c1)CCc1c-2nc2ccccc2c1N1CCOCC1,> 50 µM (inactive)
6,CCOC(=O)c1cnc(C(F)(F)F)nc1Sc1n[nH]c(-c2cccs2)n1,> 50 µM (inactive)
7,CCc1ccc2[nH]c3c(c(=O)c2c1)CN(CC(=O)NCc1ccc2c(c1)OCO2)CC3,28.1 µM
8,Cc1nc2c3ccccc3nc(NCc3ccc4c(c3)OCO4)n2n1,33.8 µM
9,C=C1Nc2ccccc2C(=O)N1c1cccc(NC(=O)c2ccc(C)c(C)c2)c1,> 50 µM (inactive)
10,COc1cc(Cl)ccc1Oc1ncnc2sc(C)c(C)c12,> 50 µM (inactive)
11,CN1CC2CN(C(=O)Nc3cccnc3)CCN2Cc2ccccc21 (centres undefined),> 50 µM (inactive)
12,CS(=O)(=O)NC1CCCN(C(=O)Nc2cccc3ccccc23)C1 (centres undefined),17.3 µM
13,Cc1ccc2c(c1)c(=O)c(C(=O)c1ccccc1)cn2CC(=O)Nc1ccc2c(c1)OCCO2,3.16 µM
14,COc1cc(C)cc2c1C(=O)c1c(cc(O)c(Cl)c1O)C2=O,1.57 µM
15,COc1cccc(C(=O)Oc2ccc3c(=O)c(-c4ccc(OC)c(OC)c4)coc3c2)c1,0.167 µM
16,COC1/C=C/OC2(C)Oc3c(C)c(O)c4c(c3C2=O)C(=O)C=C(NC(=O)/C(C)=C\C=C\C(C)C(O)C(C)C(O)C(C)C(OC(C)=O)C1C)C4=O (centres undefined),18.7 µM
17,O=C(c1ccc2ncccc2c1)N1CCC2(C1)Nc1cccnc1NC2=NC1CCCC1 (centres undefined),> 50 µM (inactive)
18,CCOC(=O)N1CCN(S(=O)(=O)c2ccc(C(=O)Nc3ccc(Br)cc3)cc2)CC1,1.78 µM
19,CC(=O)c1cc2c(=O)c3c(C(=O)O)c(O)c(O)cc3oc2c(C(C)=O)c1-c1coc2cc(O)c(O)c(C(=O)O)c2c1=O,0.49 µM
20,Cc1ccc(CNC(=O)Cn2cnc3c(cnn3-c3cccc(Cl)c3)c2=O)cc1,1.49 µM

row,Compound,IC50
1,CC(=O)NCc1nc(-c2ccc3c(c2)nc(C)c(=O)n3C2CCCC2)no1,> 50 µM (inactive)
2,COc1cc(=O)c(C(=O)Nc2ccc(C#N)cc2)nn1-c1cccc(F)c1,28.8 µM
3,COc1ccc(NC(=O)COc2cc(CSc3ccccc3)ncc2OC)cc1,43.7 µM
4,O=C(Nc1cc(F)c2nc(N3CCOCC3)ccc2c1)c1ccc(Br)o1,42.2 µM
5,CC1CC(=O)N(Cc2ccc([N+](=O)[O-])cc2)c2ccccc2S1 (centres undefined),> 50 µM (inactive)
6,Cc1ccc(Nc2nc(O)c(CC(=O)Nc3ccccc3C)s2)cc1C,18 µM
7,O=C(Nc1ccccc1Br)c1ccn(COc2ccccc2F)n1,16.5 µM
8,Cn1cc(-c2cnc(-c3cccc(F)c3)nc2)cc1C(=O)NCc1cccnc1,37.8 µM
9,FC(F)(F)c1ccccc1CCN1CCc2nc3ncc(Cl)cc3cc2C1,> 50 µM (inactive)
10,COc1ccc(C(=O)CSc2ccc3nnc(CCNC(=O)c4ccc(OC)cc4)n3n2)cc1,> 50 µM (inactive)
11,Cc1nn(C)c2c1[C@@H](c1ccc(F)c(Br)c1)[C@H](NC(=O)c1ccccc1)C(=O)N2,> 50 µM (inactive)
12,COc1ccc(OC)c(CCNC(=O)CCC2=NS(=O)(=O)c3ccc(C(F)(F)F)cc3N2)c1,26.9 µM
13,CCCOc1ccc(C(=O)Nc2ccc(S(=O)(=O)Nc3cc(C)nc(C)n3)cc2)cc1,> 50 µM (inactive)
14,O=C(Nc1ccc(-c2nnc3n2CCCCC3)cc1)c1ccc2c(c1)OCO2,> 50 µM (inactive)
15,O=C(Cc1ccccc1F)N1CCC2(CC1)CC1(CO2)Nc2ccccc2-n2cccc21 (centres undefined),> 50 µM (inactive)
16,Cn1c(CN2CCCCCC2)nc2cc(NC(=O)c3ccccc3)ccc21,> 50 µM (inactive)
17,COc1ccc(CCNC(=O)CCCn2c(=O)c3ccccc3n(CC(=O)OCc3ccccc3)c2=O)cc1OC,23.1 µM
18,O=C1Cc2ccccc2C(=O)N1c1ccc2c(c1)OCO2,22.6 µM
19,COc1ccc(C(=O)NCCc2nnc3ccc(SCC(=O)NCc4ccc(F)cc4)nn23)cc1,18.5 µM
